In patent publication US7786141B2 (Vertex Pharmaceuticals Incorporated, priority 2004, dated 2010):
pEC50: −log10 of the molar value. Read-outs that look alike come from different tables or passages of the source.

How the values were obtained:
M1 muscarinic receptor = target: T1, M1 muscarinic receptor (Homo sapiens, UniProt P11229); assay: Functional mobilization of intracellular calcium (FLIPR) in M1-CHO cells; type: cell-based
T1 construct: expressed in transfected cells; host or cells: CHO (M1-CHO)
T1 sequence (P11229 1-460): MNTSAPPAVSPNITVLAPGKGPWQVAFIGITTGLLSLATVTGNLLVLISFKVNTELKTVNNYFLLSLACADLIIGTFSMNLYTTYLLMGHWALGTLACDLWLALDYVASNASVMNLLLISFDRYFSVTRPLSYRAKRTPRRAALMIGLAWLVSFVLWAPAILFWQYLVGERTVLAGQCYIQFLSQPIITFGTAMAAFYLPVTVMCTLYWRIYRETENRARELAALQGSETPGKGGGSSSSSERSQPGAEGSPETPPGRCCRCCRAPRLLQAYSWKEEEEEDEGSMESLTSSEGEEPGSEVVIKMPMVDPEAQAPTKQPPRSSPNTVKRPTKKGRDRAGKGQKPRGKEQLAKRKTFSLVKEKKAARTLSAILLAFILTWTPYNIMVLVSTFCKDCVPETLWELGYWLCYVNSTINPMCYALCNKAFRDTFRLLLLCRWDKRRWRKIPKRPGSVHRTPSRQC
Method in brief: (§1)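 FLIPR Ca2+ read, ex 488/em 540 nm, 60 s. Recombinant CHO lines (M1 or M4), dye-loaded Fluo-3 AM 60-90 min at 37° C, probenecid 1 mM, pH 7.4. Agonist: compound alone; inhibition: 15 min compound pre-incubation, then carbachol at EC80 for that subtype.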

M4 muscarinic receptor = target: T2, M4 muscarinic receptor (Homo sapiens, UniProt P08173); assay: Functional mobilization of intracellular calcium (FLIPR) in M4-CHO cells; type: cell-based
T2 construct: expressed in transfected cells; host or cells: CHO (M4-CHO)
T2 sequence (P08173 1-479): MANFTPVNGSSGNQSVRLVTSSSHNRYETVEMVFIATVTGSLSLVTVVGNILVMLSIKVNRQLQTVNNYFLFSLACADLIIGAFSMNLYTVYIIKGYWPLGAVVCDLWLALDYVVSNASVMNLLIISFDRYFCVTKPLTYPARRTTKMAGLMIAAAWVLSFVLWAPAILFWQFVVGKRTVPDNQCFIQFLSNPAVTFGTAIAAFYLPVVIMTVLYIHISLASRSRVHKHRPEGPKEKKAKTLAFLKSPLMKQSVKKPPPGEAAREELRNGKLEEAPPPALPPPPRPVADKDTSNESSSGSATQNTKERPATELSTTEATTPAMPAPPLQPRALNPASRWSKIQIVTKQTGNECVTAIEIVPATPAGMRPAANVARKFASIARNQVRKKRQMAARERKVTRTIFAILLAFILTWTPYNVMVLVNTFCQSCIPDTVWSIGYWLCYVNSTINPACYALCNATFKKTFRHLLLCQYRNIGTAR
Method in brief: as §1

[1] = Table 4, 100% efficacy is the maximum response obtained with the Carbachol control
[2] = Table 4, M1 receptor, calcium mobilization (FLIPR)
[3] = Table 4, M4 receptor, calcium mobilization (FLIPR)
[4] = Table 4, modulating M1 receptor
[5] = Table 4, modulating M4 receptor
[6] = M1 receptor, calcium mobilization
[7] = M1 receptor, calcium mobilization, read-out: M1 Efficacy
[8] = M4 receptor, calcium mobilization
[9] = M4 receptor, calcium mobilization, read-out: M4 Efficacy

Structure (SMILES)	Emax (M1 muscarinic receptor; [1]) [%]	Emax (M4 muscarinic receptor; [1]) [%]	M1 Activity (M1 muscarinic receptor; [4])	M4 Activity (M4 muscarinic receptor; [5])	other results
CCOC(=O)N1CCC(N2CCC3(CC2)CN(c2ccc(C)nn2)c2ccc(F)cc23)CC1 [compound 942]	> 100	25 to 100	–	–	M1 Activity (M1 muscarinic receptor; [2]): xxx (activity was measured to be less than 2.0 μM); M4 Activity (M4 muscarinic receptor; [3]): xxx (activity was measured to be less than 2.0 μM)
CCOC(=O)N1CCC(N2CCC3(CC2)CN(C(C)=O)c2c(-c4ccc(C(F)(F)F)cc4)cccc23)CC1 [compound 653]	25 to 100	25 to 100	x (activity was measured to be greater than 5.0 μM)	x (activity was measured to be greater than 5.0 μM)	–
CN(C)C(=O)N1CC2(CCN(C3CCN(C(=O)c4ccc(F)cc4)CC3)CC2)c2cc(F)ccc21 [compound 767]	25 to 100	< 25	x (activity was measured to be greater than 5.0 μM)	x (activity was measured to be greater than 5.0 μM)	–
CN(C)C(=O)N1CC2(CCN(C[C@H]3CCN(c4cnccn4)C3)CC2)c2cc(F)ccc21 [compound 660]	> 100	> 100	xxx (activity was measured to be less than 2.0 μM)	xxx (activity was measured to be less than 2.0 μM)	–
C#CCOC(=O)N1CC[C@@H](CN2CCC3(CC2)CN(C(C)=O)c2cccc(C)c23)C1 [compound 564]	25 to 100	25 to 100	xxx (activity was measured to be less than 2.0 μM)	xxx (activity was measured to be less than 2.0 μM)	–
CCCOC(=O)N1CC[C@@H](CN2CCC3(CC2)CN(C(=O)N(C)C)c2ccc(F)cc23)C1 [compound 706]	25 to 100	25 to 100	xxx (activity was measured to be less than 2.0 μM)	xxx (activity was measured to be less than 2.0 μM)	–
CC(=O)N[C@H]1CCC2(CCN(CCC3CC4CCC3C4)CC2)c2ccccc21 (stereo partly drawn) [compound 581]	25 to 100	< 25	xxx (activity was measured to be less than 2.0 μM)	xxx (activity was measured to be less than 2.0 μM)	–
CC1=C(CCN2CCC3(CC2)C[C@H](NC(=O)c2ccoc2)c2ccccc23)C(C)(C)CCC1 [compound 817]	< 25	< 25	–	–	M1 Activity (M1 muscarinic receptor; [2]): x (activity was measured to be greater than 5.0 μM); M4 Activity (M4 muscarinic receptor; [3]): x (activity was measured to be greater than 5.0 μM)
CC(=O)N[C@H]1CC2(CCN(C3CC(C)(C)CC(C)(C)C3)CC2)c2ccccc21 [compound 641]	< 25	< 25	x (activity was measured to be greater than 5.0 μM)	x (activity was measured to be greater than 5.0 μM)	–
CC(=O)N1CC2(CCN(C3CCN(C(=O)O[C@@H]4CCOC4)CC3)CC2)c2cc(C)ccc21 [compound 279]	–	–	–	–	M1 Activity (M1 muscarinic receptor; [6]): xx (activity was measured to be between 0.1 μM and 1.0 μM); Emax (M1 muscarinic receptor; [7]): < 65%; M4 Activity (M4 muscarinic receptor; [8]): xx (activity was measured to be between 0.1 μM and 1.0 μM); Emax (M4 muscarinic receptor; [9]): < 65%
CCOC(=O)N1CCC(N2CCC3(CC2)CN(C(C)=O)c2ccc(F)cc23)CC1 [compound 413]	–	–	–	–	pEC50 (M1 muscarinic receptor; M1-CHO cells, calcium mobilization (FLIPR)): > 7.00; Emax (M1 muscarinic receptor; M1-CHO cells, calcium mobilization (FLIPR), read-out: M1 Efficacy): < 65%; pEC50 (M4 muscarinic receptor; M4-CHO cells, calcium mobilization (FLIPR)): 6.00 to 7.00; Emax (M4 muscarinic receptor; M4-CHO cells, calcium mobilization (FLIPR), read-out: M4 Efficacy): < 65%
CC(=O)N[C@H]1CCC2(CCN(CC3CC4CCC3C4)CC2)c2ccccc21 (stereo partly drawn) [compound 655]	25 to 100	25 to 100	xxx (activity was measured to be less than 2.0 μM)	xxx (activity was measured to be less than 2.0 μM)	–
O=C(OC1CCC1)N1C2CCC1CC(N1CCC3(CCc4ccccc43)CC1)C2 (stereo not drawn) [compound 68]	–	–	–	–	M1 Activity (M1 muscarinic receptor; [6]): xx (activity was measured to be between 0.1 μM and 1.0 μM); Emax (M1 muscarinic receptor; [7]): < 65%; M4 Activity (M4 muscarinic receptor; [8]): x (activity was measured to be greater than 1.0 μM); Emax (M4 muscarinic receptor; [9]): < 65%
CCOC(=O)C1CC1CN1CCC2(CC1)C[C@H](NC(C)=O)c1ccccc12 (stereo partly drawn) [compound 926]	25 to 100	< 25	–	–	M1 Activity (M1 muscarinic receptor; [2]): x (activity was measured to be greater than 5.0 μM); M4 Activity (M4 muscarinic receptor; [3]): x (activity was measured to be greater than 5.0 μM)
CCOC(=O)N1CCC(N2CCC3(CC2)CN(c2ncccn2)c2ccc(F)cc23)CC1 [compound 567]	25 to 100	25 to 100	xxx (activity was measured to be less than 2.0 μM)	xxx (activity was measured to be less than 2.0 μM)	–
COCCN1CC2(CCN(C3CCN(C(=O)OC(C)C)CC3)CC2)c2cc(F)ccc21 [compound 571]	25 to 100	25 to 100	xxx (activity was measured to be less than 2.0 μM)	xxx (activity was measured to be less than 2.0 μM)	–
CC(=O)NC1CCC2(CCN(CC3CCOCC3)CC2)c2ccccc21 (stereo not drawn) [compound 616]	> 100	25 to 100	xxx (activity was measured to be less than 2.0 μM)	x (activity was measured to be greater than 5.0 μM)	–
O=C1CC2(CCN(C3CCCCCC3)CC2)c2cc(Cl)ccc21 [compound 983]	25 to 100	25 to 100	–	–	M1 Activity (M1 muscarinic receptor; [2]): xxx (activity was measured to be less than 2.0 μM); M4 Activity (M4 muscarinic receptor; [3]): xxx (activity was measured to be less than 2.0 μM)
CCCOC(=O)N1CCC(CN2CCC3(CC2)CN(C(C)=O)c2ccc(C)cc23)CC1 [compound 306]	–	–	–	–	M1 Activity (M1 muscarinic receptor; [6]): x (activity was measured to be greater than 1.0 μM); Emax (M1 muscarinic receptor; [7]): < 65%; M4 Activity (M4 muscarinic receptor; [8]): x (activity was measured to be greater than 1.0 μM); Emax (M4 muscarinic receptor; [9]): < 65%
CCC#CCOC(=O)N1CC[C@H](CN2CCC3(CC2)CN(C(C)=O)c2cccc(C)c23)C1 [compound 455]	25 to 100	25 to 100	xxx (activity was measured to be less than 2.0 μM)	xxx (activity was measured to be less than 2.0 μM)	–
CC(=O)CN1CCC(N2CCC3(CC2)CN(C(C)=O)c2ccc(F)cc23)CC1 [compound 697]	25 to 100	< 25	x (activity was measured to be greater than 5.0 μM)	x (activity was measured to be greater than 5.0 μM)	–
CC(=O)N[C@H]1CC2(CCN(CCC3=C(C)CCCC3(C)C)CC2)c2ccccc21 [compound 784]	< 25	< 25	x (activity was measured to be greater than 5.0 μM)	x (activity was measured to be greater than 5.0 μM)	–
CCOC(=O)N1CCC(N2CCC3(CC2)CN(C(=O)OCC(C)C)c2ccc(F)cc23)CC1 [compound 30]	–	–	–	–	M1 Activity (M1 muscarinic receptor; [6]): xxx (activity was measured to be less than 0.1 μM); Emax (M1 muscarinic receptor; [7]): > 85%; M4 Activity (M4 muscarinic receptor; [8]): xxx (activity was measured to be less than 0.1 μM); Emax (M4 muscarinic receptor; [9]): > 85%
Clc1ccc2c(c1)C1(CCN(CC3CC4C=CC3C4)CC1)C[C@@H]2NCC1CC2C=CC1C2 (stereo partly drawn) [compound 788]	25 to 100	25 to 100	xx (activity was measured to be between 2.0 μM and 5.0 μM)	xx (activity was measured to be between 2.0 μM and 5.0 μM)	–
CCOC(=O)N1CCC(N2CCC3(CC2)CN(C(C)=O)c2c(-c4ccccc4C)cccc23)CC1 [compound 911]	< 25	< 25	–	–	M1 Activity (M1 muscarinic receptor; [2]): x (activity was measured to be greater than 5.0 μM); M4 Activity (M4 muscarinic receptor; [3]): x (activity was measured to be greater than 5.0 μM)
CC(=O)N1CC2(CCN(C3CCC[C@@H](C)C3)CC2)c2cc(F)ccc21 (stereo partly drawn) [compound 240]	–	–	–	–	M1 Activity (M1 muscarinic receptor; [6]): xx (activity was measured to be between 0.1 μM and 1.0 μM); Emax (M1 muscarinic receptor; [7]): 65 to 85%; M4 Activity (M4 muscarinic receptor; [8]): x (activity was measured to be greater than 1.0 μM); Emax (M4 muscarinic receptor; [9]): > 85%
CCOC(=O)N1CCC(N2CCC3(CC2)CN(C(C)=O)c2ccc(OC(F)(F)F)cc23)CC1 [compound 225]	–	–	–	–	M1 Activity (M1 muscarinic receptor; [6]): x (activity was measured to be greater than 1.0 μM); Emax (M1 muscarinic receptor; [7]): < 65%; M4 Activity (M4 muscarinic receptor; [8]): x (activity was measured to be greater than 1.0 μM); Emax (M4 muscarinic receptor; [9]): < 65%
